Results from ChEMBL document CHEMBL3046389, “Synthesis and biological evaluation of novel hydroquinone dimethyl ethers as potential anticancer and antimicrobial agents” (2013).
Values after ≈ are worked out from the molar mass of the structure shown.

Tests used:
Type in all cases: functional
UACC-62 = assay: Growth inhibition of Homo sapiens (human) UACC62 cells at 10 uM after 48 hr by SRB assay; conditions: UACC-62, 48 h, read-out: GI
SF-295 = assay: Anticancer activity against Homo sapiens (human) SF295 cells after 48 hr by SRB assay; conditions: SF-295, 48 h
BT-549 [1] = assay: Growth inhibition of Homo sapiens (human) BT549 cells at 10 uM after 48 hr by SRB assay; conditions: BT-549, 48 h, read-out: GI
HCC 2998 = assay: Growth inhibition of Homo sapiens (human) HCC2998 cells at 10 uM after 48 hr by SRB assay; conditions: HCC 2998, 48 h, read-out: GI
OVCAR-5 = assay: Anticancer activity against Homo sapiens (human) OVCAR5 cells after 48 hr by SRB assay; conditions: OVCAR-5, 48 h
ACHN = assay: Anticancer activity against Homo sapiens (human) ACHN cells after 48 hr by SRB assay
MDA-MB-435 = assay: Anticancer activity against Homo sapiens (human) MDA-MB-435 cells after 48 hr by SRB assay; conditions: MDA-MB-435, 48 h
SK-MEL-2 = assay: Anticancer activity against Homo sapiens (human) SK-MEL-2 cells after 48 hr by SRB assay; conditions: SK-MEL-2, 48 h
IGROV-1 = assay: Growth inhibition of Homo sapiens (human) IGROV1 cells at 10 uM after 48 hr by SRB assay; conditions: IGROV-1, 48 h, read-out: GI
T47D [2] = assay: Anticancer activity against Homo sapiens (human) T47D cells after 48 hr by SRB assay
BT-549 [3] = assay: Anticancer activity against Homo sapiens (human) BT549 cells after 48 hr by SRB assay; conditions: BT-549, 48 h
A498 = assay: Anticancer activity against Homo sapiens (human) A498 cells after 48 hr by SRB assay; conditions: A498, 48 h
NCI-H522 = assay: Anticancer activity against Homo sapiens (human) NCI-H522 cells after 48 hr by SRB assay; conditions: NCI-H522, 48 h
MCF7 = assay: Anticancer activity against Homo sapiens (human) MCF7 cells after 48 hr by SRB assay; conditions: MCF7, 48 h
UO-31 = assay: Growth inhibition of Homo sapiens (human) UO31 cells at 10 uM after 48 hr by SRB assay; conditions: UO-31, 48 h, read-out: GI
SK-OV-3 = assay: Anticancer activity against Homo sapiens (human) SKOV3 cells after 48 hr by SRB assay; conditions: SK-OV-3, 48 h
HCT-116 = assay: Anticancer activity against Homo sapiens (human) HCT116 cells after 48 hr by SRB assay; conditions: HCT-116, 48 h
T47D [4] = assay: Growth inhibition of Homo sapiens (human) T47D cells at 10 uM after 48 hr by SRB assay; conditions: read-out: GI
MDA-MB-231 = assay: Anticancer activity against Homo sapiens (human) MDA-MB-231/ATCC cells after 48 hr by SRB assay; conditions: MDA-MB-231, 48 h
A549 = assay: Anticancer activity against Homo sapiens (human) A549/ATCC cells after 48 hr by SRB assay; conditions: A549, 48 h
SNB-19 [5] = assay: Growth inhibition of Homo sapiens (human) SNB19 cells at 10 uM after 48 hr by SRB assay; conditions: SNB-19, 48 h, read-out: GI
Staphylococcus aureus = assay: Antimicrobial activity against Staphylococcus aureus DSM 1104 after 48 hr by two-fold serial broth dilution method; conditions: DSM 1104, 48 h
OVCAR-4 = assay: Anticancer activity against Homo sapiens (human) OVCAR4 cells after 48 hr by SRB assay; conditions: OVCAR-4, 48 h
Candida albicans = assay: Antimicrobial activity against Candida albicans DSM 70014 after 48 hr by two-fold serial broth dilution method; conditions: DSM 70014, 48 h
OVCAR-8 = assay: Anticancer activity against Homo sapiens (human) OVCAR8 cells after 48 hr by SRB assay; conditions: OVCAR-8, 48 h
SN12C = assay: Anticancer activity against Homo sapiens (human) SN12C cells after 48 hr by SRB assay
SNB-19 [6] = assay: Anticancer activity against Homo sapiens (human) SNB19 cells after 48 hr by SRB assay; conditions: SNB-19, 48 h
786-0 = assay: Growth inhibition of Homo sapiens (human) 786-0 cells at 10 uM after 48 hr by SRB assay; conditions: 786-0, 48 h, read-out: GI
MDA-MB-468 = assay: Growth inhibition of Homo sapiens (human) MDA-MB-468 cells at 10 uM after 48 hr by SRB assay; conditions: MDA-MB-468, 48 h, read-out: GI
EKVX = assay: Anticancer activity against Homo sapiens (human) EKVX cells after 48 hr by SRB assay
NCI-H460 = assay: Anticancer activity against Homo sapiens (human) NCI-H460 cells after 48 hr by SRB assay; conditions: NCI-H460, 48 h
KM12 = assay: Anticancer activity against Homo sapiens (human) KM12 cells after 48 hr by SRB assay; conditions: KM12, 48 h
[7] = read-out: LC50 (the source's name)

COc1ccc(OC)c(/C=C/C(=O)N/N=C/c2ccccc2)c1
inhibition of growth at 10 µM (UACC-62): 39%
GI50 (SF-295): 1 µM
TGI (SF-295): 11.1 µM
CC50 (SF-295; [7]): > 100 µM
inhibition of growth at 10 µM (BT-549 [1]): 39.2%
inhibition of growth at 10 µM (HCC 2998): 33.6%
GI50 (OVCAR-5): 18 µM
TGI (OVCAR-5): > 100 µM
CC50 (OVCAR-5; [7]): > 100 µM
GI50 (ACHN): 9.66 µM
TGI (ACHN): > 100 µM
CC50 (ACHN; [7]): > 100 µM
GI50 (MDA-MB-435): 0.283 µM
TGI (MDA-MB-435): 1.98 µM
CC50 (MDA-MB-435; [7]): > 100 µM
GI50 (SK-MEL-2): 2.98 µM
TGI (SK-MEL-2): 9.32 µM
CC50 (SK-MEL-2; [7]): > 100 µM
inhibition of growth at 10 µM (IGROV-1): 61.5%
GI50 (T47D [2]): 4.86 µM
TGI (T47D [2]): > 100 µM
CC50 (T47D [2]; [7]): > 100 µM
GI50 (BT-549 [3]): 4.05 µM
TGI (BT-549 [3]): 90.4 µM
CC50 (BT-549 [3]; [7]): > 100 µM
GI50 (A498): 12 µM
LC50 (A498): > 100 µM
TGI (A498): > 100 µM
GI50 (NCI-H522): 1.57 µM
TGI (NCI-H522): 41.7 µM
CC50 (NCI-H522; [7]): > 100 µM
GI50 (MCF7): 3.79 µM
TGI (MCF7): > 100 µM
CC50 (MCF7; [7]): > 100 µM
inhibition of growth at 10 µM (UO-31): 43.4%
GI50 (SK-OV-3): 12 µM
LC50 (SK-OV-3): > 100 µM
TGI (SK-OV-3): > 100 µM
GI50 (HCT-116): 2.64 µM
TGI (HCT-116): 10.2 µM
CC50 (HCT-116; [7]): 67.2 µM
inhibition of growth at 10 µM (T47D [4]): 60.3%
GI50 (MDA-MB-231): 7.24 µM
TGI (MDA-MB-231): > 100 µM
CC50 (MDA-MB-231; [7]): > 100 µM
GI50 (A549): 4.29 µM
TGI (A549): > 100 µM
CC50 (A549; [7]): > 100 µM
inhibition of growth at 10 µM (SNB-19 [5]): 52.1%
MBC (Staphylococcus aureus): 100 mg/L (≈ 322 µM)
MIC (Staphylococcus aureus): 100 mg/L (≈ 322 µM)
GI50 (OVCAR-4): 14.3 µM
TGI (OVCAR-4): > 100 µM
CC50 (OVCAR-4; [7]): > 100 µM
MFC (Candida albicans): 100 mg/L (≈ 322 µM)
MIC (Candida albicans): 100 mg/L (≈ 322 µM)
GI50 (OVCAR-8): 5.44 µM
LC50 (OVCAR-8): > 100 µM
TGI (OVCAR-8): 94.6 µM
GI50 (SN12C): 4.17 µM
LC50 (SN12C): > 100 µM
TGI (SN12C): 39.9 µM
GI50 (SNB-19 [6]): 4.12 µM
TGI (SNB-19 [6]): > 100 µM
CC50 (SNB-19 [6]; [7]): > 100 µM
inhibition of growth at 10 µM (786-0): 45.7%
inhibition of growth at 10 µM (MDA-MB-468): 71.9%
GI50 (EKVX): 1.59 µM
TGI (EKVX): 59.5 µM
CC50 (EKVX; [7]): > 100 µM
GI50 (NCI-H460): 2.08 µM
TGI (NCI-H460): 5.62 µM
CC50 (NCI-H460; [7]): 28.3 µM
GI50 (KM12): 0.834 µM
TGI (KM12): 3.75 µM
CC50 (KM12; [7]): 29.4 µM
